Experimental data: PubChem BioAssay (NCI)
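These data come from cells grown in 96-well plates and exposed to compound for 48 hours at five concentrations. The concentration for full growth arrest is given as TGI.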

How the values were obtained:
Assay in all cases: NCI tumour cell line growth inhibition, 48 h
HS 578T breast = system: HS 578T breast
NCI/ADR-RES ovarian = system: NCI/ADR-RES ovarian
SF-268 CNS = system: SF-268 CNS
NCI-H460 lung = system: NCI-H460 lung
EKVX NSCLC = system: EKVX NSCLC
MDA-MB-231 breast = system: MDA-MB-231 breast
HCC-2998 colon = system: HCC-2998 colon
SNB-19 CNS = system: SNB-19 CNS
HOP-92 NSCLC = system: HOP-92 NSCLC
BT-549 breast = system: BT-549 breast
SF-539 CNS = system: SF-539 CNS
DLD-1 colon = system: DLD-1 colon
P388/ADR leukemia = system: P388/ADR leukemia

| Structure (SMILES) | TGI (HS 578T breast) | TGI (NCI/ADR-RES ovarian) | TGI (SF-268 CNS) | TGI (NCI-H460 lung) | TGI (EKVX NSCLC) | TGI (MDA-MB-231 breast) | TGI (HCC-2998 colon) | TGI (SNB-19 CNS) | TGI (HOP-92 NSCLC) | TGI (BT-549 breast) | TGI (SF-539 CNS) | TGI (DLD-1 colon) | TGI (P388/ADR leukemia) |
| --- | --- | --- | --- | --- | --- | --- | --- | --- | --- | --- | --- | --- | --- |
| Cc1cc(C)nc(SCCc2cccc[n+]2C)n1 | > 100 µM | > 100 µM | > 100 µM | > 100 µM | > 100 µM | > 100 µM | > 100 µM | > 100 µM | > 100 µM | > 100 µM | – | – | – |
| COc1cc(S(=O)(=O)Nc2nc(-c3ccc(N4C(=O)/C(=C/c5ccccc5[N+](=O)[O-])N=C4c4ccccc4)cc3)cs2)ccc1Cl | – | > 100 µM | > 100 µM | > 100 µM | – | 42.2 µM | – | > 100 µM | > 100 µM | 74.7 µM | > 100 µM | – | – |
| COc1c(OC/C=C(\C)CCC=C(C)C)ccc2ccc(=O)oc12 | > 100 µM | > 100 µM | > 100 µM | – | > 100 µM | > 100 µM | > 100 µM | > 100 µM | > 100 µM | > 100 µM | > 100 µM | – | – |
| Cl/C(=C\C=Nc1ccc(I)cc1)c1ccc2ccccc2c1 | > 87.7 µM | 32.5 µM | 65.4 µM | > 79.4 µM | > 100 µM | 36 µM | 17.8 µM | 39.7 µM | > 85 µM | 47 µM | 44.4 µM | – | – |
| C=C1C(=O)OC2CC1CCC1(C)OC1CCC(C)=CCCC2(C)O (stereo not drawn) | – | 5.84 µM | 14.2 µM | 7.85 µM | 13.9 µM | – | 15.2 µM | 39.9 µM | 5.89 µM | – | 10.5 µM | 6.12 µM | 10.8 µM |
| Cn1c2c3ccc(Cl)cc3nc-2c(Cl)c2ccccc21 | > 100 µM | 69.2 µM | 36.3 µM | 43.8 µM | 90.2 µM | 97.8 µM | 20.5 µM | > 100 µM | 37.1 µM | 50.1 µM | 49.2 µM | – | – |
| C=CCNS(=O)(=O)c1ncnc2nc[nH]c12 | > 100 µM | > 100 µM | – | – | > 100 µM | > 100 µM | – | > 100 µM | > 100 µM | > 100 µM | – | – | – |
| O=C1OCc2cc3cc4c(cc3c(-c3ccc5c(c3)OCO5)c21)OCO4 (tested in a mixture with another compound) | 80.9 µM | > 100 µM | – | > 100 µM | – | 15.6 µM | > 100 µM | > 100 µM | 43.5 µM | > 100 µM | – | – | – |
| COc1cc(/C=C/C(=O)CC(=O)/C=C/c2ccc(O)c(OC)c2)ccc1O | 58.5 µM | 27.6 µM | 36.1 µM | 23.1 µM | […] | 55.7 µM | 8.08 µM | 15.7 µM | – | 13.7 µM | 8.87 µM | – | – |
| O=C(Nc1ccc(Cl)c(Cl)c1)N1N=C2c3ccccc3CCC2C1c1ccc(Cl)cc1 (stereo not drawn) | > 100 µM | > 100 µM | > 100 µM | > 100 µM | > 100 µM | > 100 µM | > 100 µM | > 100 µM | > 100 µM | > 100 µM | > 100 µM | – | – |
| C=CCSSCC=C | 97.4 µM | > 73.2 µM | > 90.5 µM | > 100 µM | > 100 µM | > 100 µM | > 100 µM | > 100 µM | > 100 µM | > 81.5 µM | > 71.9 µM | – | – |
| COc1ccc(NC(=S)N/N=C(\C)c2nc3ncccc3[nH]2)cc1 | > 100 µM | > 100 µM | > 100 µM | 37.9 µM | > 100 µM | > 100 µM | > 100 µM | > 100 µM | 37.7 µM | 42.3 µM | 13.7 µM | – | – |
